Experimental findings from patent US4290952A, “Aryl-1-mercaptoalkanoylproline and homoproline derivatives” (American Home Products Corporation, priority 1980, dated 1981) are described below.

Assay [1] concerns male spontaneously hypertensive rats. Description: Blood pressure lowering in spontaneously hypertensive rats (systolic pressure, caudal plethysmograph). Type of assay: in vivo, rat. The procedure:
In addition, the blood pressure lowering ability of the compounds of this invention was established by measuring the systolic pressure of male spontaneously hypertensive rats with a Decker Caudal Plethysmograph. The compounds tested were administered orally and blood pressure was read prior to and at 1.5, 4 and 24 hours after drug administration.

The subject of assay [2] is angiotensin converting enzyme. As to the kind of experiment: In vivo inhibition of angiotensin converting enzyme: blood pressure responses to i.v. angiotensin I in conscious normotensive rat after oral dosing. The conditions noted are these: 10 mg/kg, 10 minutes post dosing, mean two animals. The procedure:
The in vitro experiments were confirmed following the procedure of Rubin et al, J. Pharmacol. Exp. Ther 204 721 (1978) whereby jugular vein and carotid artery cannulae are placed in an ether anesthetized, normotensive,male, Spraque-Dawley rat for injection of compounds and direct recording of systemic arterial pressure, respectively. The blood pressure responses in the conscious animal to i.v. injections of angiotensin I (300 ng/kg), angiotensin II (100 ng/kg) and bradykinin (10 μg/kg) are recorded and compared with identical doses administered at various time intervals after oral dosing of the angiotensin converting enzyme inhibitor of this invention.

Assay [3] has as its target T1, angiotensin converting enzyme (Oryctolagus cuniculus, UniProt P12822).
T1 construct: A crude angiotensin converting enzyme supernatant is obtained by blending 1 gm. of rabbit lung acetone powder; tissue Pel-Freez Biologicals; host or cells: rabbit lung (acetone powder; crude 40,000 xg supernatant)
T1 sequence (P12822 34-1310): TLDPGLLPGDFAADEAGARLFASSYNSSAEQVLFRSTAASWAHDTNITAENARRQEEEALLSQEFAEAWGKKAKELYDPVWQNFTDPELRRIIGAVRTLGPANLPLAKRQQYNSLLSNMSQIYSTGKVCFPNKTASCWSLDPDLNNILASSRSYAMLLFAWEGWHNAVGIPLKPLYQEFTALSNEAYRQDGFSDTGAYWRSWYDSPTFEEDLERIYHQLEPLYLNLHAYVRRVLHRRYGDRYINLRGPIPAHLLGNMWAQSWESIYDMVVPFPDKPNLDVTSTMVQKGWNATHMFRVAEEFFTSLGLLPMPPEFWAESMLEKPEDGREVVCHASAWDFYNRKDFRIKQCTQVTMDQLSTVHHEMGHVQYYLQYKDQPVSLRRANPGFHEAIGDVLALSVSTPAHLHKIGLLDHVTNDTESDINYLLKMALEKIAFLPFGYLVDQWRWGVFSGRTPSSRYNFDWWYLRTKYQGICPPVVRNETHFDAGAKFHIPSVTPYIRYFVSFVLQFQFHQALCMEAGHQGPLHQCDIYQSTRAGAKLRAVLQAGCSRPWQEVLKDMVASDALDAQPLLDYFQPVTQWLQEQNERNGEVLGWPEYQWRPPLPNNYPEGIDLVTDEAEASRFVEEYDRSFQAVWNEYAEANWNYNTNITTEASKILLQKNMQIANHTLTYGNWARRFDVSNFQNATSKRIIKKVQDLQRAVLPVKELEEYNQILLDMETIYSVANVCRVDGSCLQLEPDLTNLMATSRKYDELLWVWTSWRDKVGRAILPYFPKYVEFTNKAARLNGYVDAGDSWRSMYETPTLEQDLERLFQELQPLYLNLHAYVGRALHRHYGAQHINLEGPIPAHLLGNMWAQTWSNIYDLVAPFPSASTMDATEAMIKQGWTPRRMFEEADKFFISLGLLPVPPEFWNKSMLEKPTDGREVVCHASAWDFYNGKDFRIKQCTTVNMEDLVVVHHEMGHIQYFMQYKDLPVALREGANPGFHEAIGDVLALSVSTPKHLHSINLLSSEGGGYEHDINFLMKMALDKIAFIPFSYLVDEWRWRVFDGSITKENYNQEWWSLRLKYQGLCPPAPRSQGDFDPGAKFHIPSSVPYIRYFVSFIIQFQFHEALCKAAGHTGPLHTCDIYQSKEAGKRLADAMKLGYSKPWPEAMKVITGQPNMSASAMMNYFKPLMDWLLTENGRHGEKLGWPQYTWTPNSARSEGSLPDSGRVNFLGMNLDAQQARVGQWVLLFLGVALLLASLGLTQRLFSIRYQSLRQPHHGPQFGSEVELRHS
As to the kind of experiment: Inhibition of hippuryl-L-histidyl-L-leucine hydrolysis by angiotensin converting enzyme, in vitro. Type of assay: biochemical, rabbit. The procedure: The activity of the compounds of this invention was established by incubation of hippuryl-L-histidyl-L-leucine at 37° C. with angiotensin converting enzyme by the following procedure:
A crude angiotensin converting enzyme supernatant is obtained by blending 1 gm. of rabbit lung acetone powder (Pel-Freez Biologicals) with 35 ml of 50 mM (buffered) potassium phosphate, pH 8.3 and centrifuging for 45 min. at 40,000 xg.
The specific angiotensin converting enzyme substrate Hippuryl-L-histidyl-L-leucine (HHL--Sigma Chem. Co.) is prepared at 5 mM in 200 mM potassium phosphate buffer containing 757 mM NaCl at pH 8.3.
Incubation for the assay of HHL hydrolysis by angiotensin converting enzyme is carried out in a 37° C. gyrorotary incubator in disposable 13×100 mm tubes. Each 0.25 ml assay mixture contains the following components at the final concentrations: potassium phosphate buffer, 100 mM; NaCl, 300 mM; HHL, 5 mM; and enzyme 0.15 ml (10 mU approx.) added last to initiate the reaction. Zero time controls have 0.25 ml of 2 N HCl added before the enzyme. The timed reactions are terminated with acid at 30 min. similarly and the hippuric acid freed from substrate is extracted into 1.5 ml of ethylacetate by vortex mixing for 15 sec. After 5 min. centrifugation in a clinical centrifuge, a 1.0 ml aliquot of the ethyl acetate layer is transferred to a clean tube. These aliquots are evaporated to dryness by heating (120° C.) in a Temp-Block module heater.
The hippuric acid is resuspended in 1.0 ml of water, the absorbance at 228 nm is determined, and the amount present is calculated from a standard curve. The amount of hippuric acid×1.1 (extraction coefficient)×1.5 (ratio of volumes)×1 μM hippuric acid/[…]×1/30 min.=nM hippuric acid released/min. Enzyme activity in the presence of an inhibitor is compared with control activity, and reported as a percentage inhibition. (Cushman, D. W. and Cheung, H. S., Biochem. Pharmacol. 20 1637 (1971).

Each structure is given as a SMILES string.

As for `O=C(O)[C@@H]1CC[C@H](c2ccccc2)N1C(=O)CCS` (relative stereo) [Example four, cis-1-(3-Mercaptopropanoyl)-5-phenyl proline], the “reduction of systolic blood pressure in spontaneously hypertensive rats” value in assay [1] (50 mg/kg oral dose, four hours after administration) is 21 millimeters. For the same compound, the inhibition in vivo – broadly, the change of the read-out against control, counted positive when it falls – in assay [2] is 65%. Further, in assay [3] (100 ng/ml), the inhibition (commonly how much of the control response was suppressed) at 0.1 µg/mL came out at 72%.

Take `COc1ccc([C@H]2CC[C@@H](C(=O)O)N2C(=O)CCS)cc1OC` (relative stereo) [Example two, cis-1-(3-Mercaptopropanoyl)-5-(3,4-Dimethoxyphenyl)proline]: the “reduction of systolic blood pressure in spontaneously hypertensive rats” value in assay [1] (50 mg/kg orally administered) worked out at 23 mmHg. In addition, the inhibition in vivo in assay [2] amounted to 72%. Moreover, in assay [3] (100 ng/ml), the inhibition at 0.1 µg/mL came to 40%.

For the compound `CC(CSC(=O)c1ccccc1)C(=O)N1[C@@H](c2ccccc2)CC[C@H]1C(=O)O` (single isomer, unassigned) [α-acid of Example 7, 5-Phenyl-1-(3-benzoylthio-2-methyl-1-oxopropyl)proline], the “inhibition of angiotensin converting enzyme in vitro” value in assay [3] (100 ng/ml) worked out at 3%; in assay [3] (1000 ng/ml) it was 17%.

For the compound `CC(CSC(=O)c1ccccc1)C(=O)N1[C@@H](c2ccccc2)CC[C@H]1C(=O)O` (single isomer, unassigned) [β-acid of Example 7, 5-Phenyl-1-(3-benzoylthio-2-methyl-1-oxopropyl)proline], the “reduction of blood pressure in the rat” value in assay [1] (10 mg/kg, oral) is recorded as 37 mmHg. Moreover, the inhibition at 0.001 µg/mL in assay [3] (1 ng/ml) stood at 20%. In assay [3] (10 ng/ml), the inhibition at 0.01 µg/mL is 40%. The inhibition at 0.05 µg/mL in assay [3] (50 ng/ml) came to 75%. Also, the “inhibition of angiotensin converting enzyme in vitro” value worked out at 84% in assay [3] (100 ng/ml) and 99% in assay [3] (1000 ng/ml).
